Paper PMC4632735, “Ferulic Acid Exerts Anti-Angiogenic and Anti-Tumor Activity by Targeting Fibroblast Growth Factor Receptor 1-Mediated Angiogenesis” (International Journal of Molecular Sciences, 2015)

Legend:
FGFR1 = molecular target: T1, FGFR1 (Homo sapiens, UniProt P11362); assay: FRET-based in vitro kinase assay (Z'-LYTE); radiometric kinase panel gave […] inhibition at […]; type: biochemical
T1 construct: kinase domain

FGFR2 = FGFR2 (Homo sapiens, UniProt P21802); assay: in vitro kinase assay; radiometric kinase panel gave […] inhibition at […]; type: biochemical
Sequence of FGFR2 (P21802 22-821): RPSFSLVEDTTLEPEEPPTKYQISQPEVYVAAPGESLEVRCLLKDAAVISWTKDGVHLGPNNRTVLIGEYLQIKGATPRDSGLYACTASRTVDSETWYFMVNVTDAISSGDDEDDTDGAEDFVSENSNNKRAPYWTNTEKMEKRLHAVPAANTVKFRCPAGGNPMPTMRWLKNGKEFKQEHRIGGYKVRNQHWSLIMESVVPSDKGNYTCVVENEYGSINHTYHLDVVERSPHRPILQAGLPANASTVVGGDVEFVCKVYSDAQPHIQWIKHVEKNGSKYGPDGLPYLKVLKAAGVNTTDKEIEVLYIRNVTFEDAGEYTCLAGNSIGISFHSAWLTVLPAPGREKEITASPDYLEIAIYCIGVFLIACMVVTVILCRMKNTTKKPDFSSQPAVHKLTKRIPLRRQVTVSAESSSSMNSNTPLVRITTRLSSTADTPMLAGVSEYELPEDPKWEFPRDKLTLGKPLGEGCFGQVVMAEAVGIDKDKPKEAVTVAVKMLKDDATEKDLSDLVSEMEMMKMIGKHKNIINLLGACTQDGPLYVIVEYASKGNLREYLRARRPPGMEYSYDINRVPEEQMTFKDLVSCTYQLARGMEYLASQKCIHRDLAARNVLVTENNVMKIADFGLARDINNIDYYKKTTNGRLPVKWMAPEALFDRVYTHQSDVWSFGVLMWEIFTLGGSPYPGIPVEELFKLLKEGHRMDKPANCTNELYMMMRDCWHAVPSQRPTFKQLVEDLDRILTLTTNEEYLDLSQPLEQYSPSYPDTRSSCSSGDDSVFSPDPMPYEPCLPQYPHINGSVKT

T1 sequence (P11362 478-767 limits assumed): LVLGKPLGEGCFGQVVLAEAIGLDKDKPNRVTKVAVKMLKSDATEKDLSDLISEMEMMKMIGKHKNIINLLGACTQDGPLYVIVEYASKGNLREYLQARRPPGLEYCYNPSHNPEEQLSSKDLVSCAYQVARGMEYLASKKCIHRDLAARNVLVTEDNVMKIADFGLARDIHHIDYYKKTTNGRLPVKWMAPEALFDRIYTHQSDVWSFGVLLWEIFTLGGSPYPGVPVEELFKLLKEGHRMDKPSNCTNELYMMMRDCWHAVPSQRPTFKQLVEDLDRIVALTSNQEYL

- IC50 (FGFR1): ~3.78 µM
- IC50 (FGFR2): ~12.5 µM
Compound: COc1cc(/C=C/C(=O)O)ccc1O [FA, 4-hydroxy-3-methoxycinnamic acid]
